Consider six compounds from patent publication US10053447B2, “Fluorescent compounds” (Pierce Biotechnology, Inc, priority 2010, dated 2018).

Data set [1] in a line: Quantum yield (QY) measurement, Hamamatsu C9920 PL Absolute Quantum Yield Measurement System. The data set is classed as physicochemical. Particulars: in PBS. The method, then: The quantum yield (QY) was determined at an excitation wavelength of 500 nm and 530 nm for inventive and commercial compounds, as shown below
QY measurements were performed in PBS using a Hamamatsu C9920 PL Absolute Quantum Yield Measurement System. The maximum absorbance at a 1 cm pathlength was set to 0.08. The lower values for the excitation at 530 nm was due to the rising emission which was not included in the counting because it was too close to the excitation light.
The quantum yield (QY) was determined at an excitation wavelength of 600 nm for inventive and commercial compounds, as shown below
QY measurements were performed in PBS using a Hamamatsu C9920 PL Absolute Quantum Yield Measurement System. The maximum absorbance at a 1 cm pathlength was set to 0.08.
The quantum yield (QY) was determined at an excitation wavelength of 710 nm for inventive and commercial compounds, as shown below.
QY measurements were performed in PBS using a Hamamatsu C9920 PL Absolute Quantum Yield Measurement System. The maximum absorbance at a 1 cm path length was set to 0.08.

Data set [2] in a line: Absorption profile and fluorescence intensity of the free dyes. The data set is classed as physicochemical. Conditions: dyes compared with each other (FIG. 1, 25, 52).
Data set [3] in a line: Storage stability at 50° C. under argon. The data set is classed as physicochemical. The method, then:
The inventive compounds were evaluated for stability. All compounds were packed under argon in plastic vials. The vials sere sealed with a drying pad in an aluminium coated pouch, and then stored at 50° C. for seven days. The results of the stability study for selected compounds are shown below:
Purity was determined based on ester activity.
The inventive compounds were evaluated for stability compared to commercial dyes. All compounds were packed under argon as 1 mg portions in plastic vials. The vials sere sealed with a drying pad in an aluminium coated pouch, and then stored at 50° C. for 14 days. The results of the stability study for selected compounds are shown below:
The inventive compound 755 Compound 1 (isomer 1)-NHS was evaluated for stability. The compound was packed under argon in plastic vials. The vials sere sealed with a drying pad in an aluminium coated pouch, and then stored at 50° C. for 14 days. Purity was determined by HPLC before and after storage.

Data set [4] in a line: Spectral properties of the dyes compared with commercially available dyes. The data set is classed as physicochemical. Conditions: reactive ester form of the dye.
The subject of data set [5] is mouse IgG, rabbit IgG, biotinylated bovine serum albumin (BBSA). The data set can be described thus: Functional assay, summary over GAM, GAR and SA conjugates. The data set is classed as binding. Particulars: compared with DyLight 549 or DyLight 649 conjugates. As to the method: Performance of the dye-GAM conjugates, dye-GAR conjugates, and dye-SA conjugates was evaluated in a functional assay. Wells of a 96 white opaque plate were coated with target proteins mouse IgG immunoglobulin, rabbit IgG immunoglobulin, or biotinylated bovine serum albumin (BBSA). One hundred μl mouse or rabbit IgG or BBSA at a concentration of 10 μg/ml was applied to the corresponding wells in columns 1 and 2. The target proteins were serially diluted 1:1 from the wells in columns 2 to 11 using 100 μl PBS. One hundred 100 μl of the samples from the wells in column 11 were discarded. One hundred μl PBS was added to the wells in column 12. The plates were incubated overnight at 4° C. and then blocked 2×200 μl with Thermo Scientific SuperBlock® Blocking Buffer. The coated plates were washed 2×200 μl with PBS-Tween and 1×200 μl with PBS. Conjugates diluted in PBS to 4 μg/ml were added to the corresponding plates (100 μl/well) and then incubated for 1 h in the dark. The plates were washed with 2×200 μl with PBS-Tween and 1×200 μl with PBS and filled with PBS buffer (100 μl/well) prior to scanning on Tecan Safire using 562 nmexcitation/576 nmemission to detect fluorescence intensity.
Performance of the dye-GAM conjugates and dye-GAR conjugates was evaluated in a functional assay. Wells of a 96 well white opaque plate were coated with mouse IgG, or rabbit IgG. One hundred μl mouse or rabbit IgG at a concentration of 10 μg/ml was applied to the corresponding wells in columns 1 and 2. The IgG proteins were serially diluted 1:1 from the wells in columns 2 to 11 using 100 μl PBS. One hundred 100 μl of the samples from the wells in column 11 were discarded. One hundred μl PBS was added to the wells in column 12. […] The plates were washed with 2×200 μl with PBS-Tween and 1×200 μl with PBS and filled with PBS buffer (100 μl/well) prior to scanning on Tecan Safire using the Alexa 647 setting (650 nmexcitation/665 nmemission) and the DyLight 649 setting (654 nmexcitation/673 nmemission to detect fluorescence intensity

For data set [6], the system named is U2OS cells; A550 cells. As to the kind of experiment: Immunofluorescence cell based assays, summary statements. The arrangement: species or system human. Particulars: GAM and GAR conjugates. As to the method:
The inventive compounds and commercial dye were evaluated for immunofluorescence in cell based assays using the following protocol. Plates containing U2OS cells (human osteosarcoma cell line) were fixed in 4% paraformaldehyde in PBS/0.1% Triton X-100 for 15 min at room temperature. The cells were then permeabilized with 2% BSA in PBS/0.1% Triton X-100 for 30 min at room temperature. Diluted primary antibodies in PBS/0.1% Triton X-100 were added to the plates and incubated overnight at 4° C. The plates were washed 3×100 μl with PBS. Based on the calculated protein concentrations, the conjugates were diluted to 4 μg/ml (1:250 from 1 mg/ml stock) in PBS/0.1% Triton X-100 and added to the plates (50 μl/well) and incubated 1 h in the dark at room temperature. The plates were washed 3×100 μl with PBS. One hundred μl of 2 μg/ml Hoechst dye in PBS was added per well. The plates were then scanned on an ArrayScan® Plate Reader for imaging and quantitation.
The inventive compounds and commercial dyes were evaluated for immunofluorescence in cell based assays using the following protocol. Plates containing A550 cells (adenocarcinoma human alveolar basal epithelial cells, P5, Sep. 23, 2010) and stored at −80° C. were placed at 50° C. for 30 min. The storage buffer (PBS) was removed and then the cells were permeabilized for 15 min (100 μl/well) with 0.1% Triton-X100 in 1×PBS buffer. The plates were blocked for 30 min in 2% BSA in 1×PBS-0.1% Triton-X100 and then incubated with primary antibodies diluted in 2% BSA in 1×PBS, 0.1% Trion-X100, overnight at 4° C. […] The remaining wells were incubated in blocking buffer only (no primary antibody). After overnight incubation, the antibody solution was removed from the wells, and the plates were washed with PBS-Tween (2×100 μl/well). The labeled secondary antibody conjugates, diluted to 4 μg/ml in PBS were added to corresponding wells and incubated for 1 h at room temperature (about 20° C. to about 22° C.). The plates were washed 3×100 μl/well with PBS and Hoechst stain diluted 1 μg/ml in PBS were added to each well (100 μl/well) of each plate. The plates were then scanned on the Thermo Scientific ArrayScan® HCS Reader for imaging and quantitation.

[7] abbreviates: unit size 15 μg, 50° C. for seven days, purity based on ester activity, listed as 550 Compound 1(isomer 2)-NHS.
Setting [8] is: unit size 50 μg, 50° C. for seven days, purity based on ester activity, listed as 550 Compound 1(isomer 2)-NHS.
The mark [9] stands for this setting: listed as 550 Compound 1(isomer 1)-NHS.
The mark [10] stands for this setting: unit size 15 μg, 50° C. for seven days, purity based on ester activity, listed as 550 Compound 1(isomer 1)-NHS.
Where [11] appears, read: unit size 50 μg, 50° C. for seven days, purity based on ester activity, listed as 550 Compound 1(isomer 1)-NHS.
The mark [12] stands for this setting: unit size 1 mg, 50° C. for seven days, purity based on ester activity.
Where [13] appears, read: unit size 15 μg, 50° C. for 14 days, purity by HPLC.
[14] abbreviates: unit size 50 μg, 50° C. for 14 days, purity by HPLC.
Setting [15] is: unit size 60 μg, 50° C. for 14 days, purity by HPLC.
Where [16] appears, read: unit size 1 mg, 50° C. for 14 days, purity by HPLC.

Each structure is given as a SMILES string.

As to `COCCN1/C(=C/C=C/C2=[N+](CCCCCC(=O)ON3C(=O)CCC3=O)c3ccc(S(=O)(=O)[O-])cc3C2(C)CCCS(=O)(=O)O)C(C)(CCCS(=O)(=O)O)c2cc(S(=O)(=O)O)ccc21` (single isomer, unassigned) [550 Compound 1 (isomer 2)-NHS], in data set [1], the “QY excitation at 500 nm” value came to 0.096 and the “QY excitation at 530 nm” value was 0.090. Further, the Absorption profile result in data set [2] is listed as “very similar profiles”. Besides, in data set [3] (setting [7]), the “Purity at day 1” value turned out to be 96% and the “Purity at day 7” value came to 94%. Further, in data set [3] (setting [8]), the “Purity at day 1” value worked out at 96% and the “Purity at day 7” value came to 95%.
For the compound `COCCN1/C(=C/C=C/C=C/C=C/C2=[N+](CCCCCC(=O)ON3C(=O)CCC3=O)c3ccc(S(=O)(=O)[O-])cc3C2(C)CCCS(=O)(=O)O)C(C)(CCCS(=O)(=O)O)c2cc(S(=O)(=O)O)ccc21` (single isomer, unassigned) [755 Compound 1 (isomer 2)-NHS], in data set [4], the “Emission (Em)” value is on record as 776 nm, the “Excitation (Ex)” value came out at 754 nm and the ε is 220,000 M−1cm−1. Also, in data set [1], the “QY with excitation at 710 nm” value is on record as 0.110. For the same compound, the Absorption profile result in data set [2] is reported as “very similar profiles”.
For the compound `COCCN1/C(=C/C=C/C2=[N+](CCCCCC(=O)ON3C(=O)CCC3=O)c3ccc(S(=O)(=O)[O-])cc3C2(C)CCCS(=O)(=O)O)C(C)(CCCS(=O)(=O)O)c2cc(S(=O)(=O)O)ccc21` (single isomer, unassigned) [550 Compound 1 (isomer 1)-NHS], in data set [1] (setting [9]), the “QY excitation at 500 nm” value was 0.105 and the “QY excitation at 530 nm” value was determined as 0.098. Also, the Absorption profile result in data set [2] is listed as “very similar profiles”. Moreover, in data set [3] (setting [10]), the “Purity at day 1” value is 95% and the “Purity at day 7” value turned out to be 91%. Besides, in data set [3] (setting [11]), the “Purity at day 1” value came out at 95% and the “Purity at day 7” value is listed as 91%. Moreover, in data set [3] (setting [12]), the “Purity at day 1” value worked out at 96% and the “Purity at day 7” value stood at 93%.
With `COCC[N+]1=C(/C=C/C=C/C=C2/N(CCCCCC(=O)O)c3ccc(S(=O)(=O)O)cc3C2(C)CCCS(=O)(=O)O)C(C)(CCCS(=O)(=O)O)c2cc(S(=O)(=O)O)ccc21.[Na+].[Na+].[Na+]` (centres unmarked) [650 Compound 1, 2-{(1E,3E)-5-[1-(5-Carboxypentyl)-3-methyl-5-sulfo-3-(3-sulfopropyl)-1,3-dihydro-indol-(2E)-ylidene]-penta-1,3-dienyl}-1-(2-methoxy-ethyl)-3-methyl-5-sulfo-3-(3-sulfopropyl)-3H-indolium tri sodium salt], the “Performance of conjugates (GAM, GAR, SA) in the functional assay in terms of signal-to-noise” value in data set [5] is listed as “superior to DyLight 649 conjugates”. The “Immunofluorescence performance of conjugates compared with commercial DyLight dye” value in data set [6] (tri sodium salt) is “at least similar performance to DyLight 649 conjugates (GAM, GAR), and in some cases superior performance”.
With `COCCOCCOCC[N+]1=C(/C=C/C=C/C=C2/N(CCCCCC(=O)O)c3ccc(S(=O)(=O)O)cc3C2(C)CCCS(=O)(=O)O)C(C)(CCCS(=O)(=O)O)c2cc(S(=O)(=O)O)ccc21.[Na+].[Na+].[Na+]` (centres unmarked) [650 Compound 3, 2-{(1E,3E)-5-[1-(5-carboxypentyl)-3-methyl-5-sulfo-3-(3-sulfopropyl)-1,3-dihydro-indol-(2E)-ylidene]-penta-1,3-dienyl}-1-{2-[2-(2-methoxy-ethoxy)-ethoxy]-ethyl}-3-methyl-5-sulfo-3-(3-sulfopropyl)-3H-indolium tri sodium salt], the “Performance of conjugates (GAM, GAR, SA) in the functional assay in terms of signal-to-noise” value in data set [5] is “superior to DyLight 649 conjugates”. Further, the “Immunofluorescence performance of conjugates compared with commercial DyLight dye” value in data set [6] was “at least similar performance to DyLight 649 conjugates (GAM, GAR), and in some cases superior performance”.
As for `COCCN1/C(=C/C=C/C=C/C=C/C2=[N+](CCCCCC(=O)ON3C(=O)CCC3=O)c3ccc(S(=O)(=O)[O-])cc3C2(C)CCCS(=O)(=O)O)C(C)(CCCS(=O)(=O)O)c2cc(S(=O)(=O)O)ccc21` (single isomer, unassigned) [755 Compound 1 (isomer 1)-NHS], in data set [4], the “Emission (Em)” value is listed as 776 nm, the “Excitation (Ex)” value is on record as 754 nm and the ε was 220,000 M−1cm−1. Further, in data set [1], the “QY with excitation at 710 nm” value turned out to be 0.119. In addition, the Absorption profile entry in data set [2] is recorded as “very similar profiles”. In data set [3] (setting [13]), the “Purity at day 1” value was 99% and the “Purity at day 14” value is listed as 96%. In addition, in data set [3] (setting [14]), the “Purity at day 1” value amounted to 99% and the “Purity at day 14” value stood at 97%. Also, in data set [3] (setting [15]), the “Purity at day 1” value is on record as 99% and the “Purity at day 14” value worked out at 97%. Moreover, in data set [3] (setting [16]), the “Purity at day 1” value worked out at 99% and the “Purity at day 14” value is given as 98%.
